{"source": "patent US10960084B2", "about": "“Modulation of fluid intake” (California Institute of Technology, priority 2018, dated 2021)", "key": {"[1]": {"test_system": "hM4Di-expressing MnPO^nNOS neurons", "test": "Slice current-clamp recording, CNO on hM4Di-expressing MnPO^nNOS neurons", "type": "cell-based, mice", "conditions": "brain slices", "description": "(§1) Procedures for preparation of acute brain slices and recordings with optogenetic stimulations were similar to those described previously^[10],[36]. After decapitation, the brain was removed and immersed in ice-cold solution. Coronal slices ([…]) were cut using a vibratome (VT-1200s, Leica) and moved into HEPES-holding solution (NaCl 92, KCl 2.5, NaH2PO4 1.2, NaHCO3 30, HEPES 20, glucose 25, Na-ascorbate 5, Thiourea 2, Na14 pyruvate 3, MgSO4 2, CaCl2 2, pH 7.35). The slices were allowed to recover at 33° C. for 30 min and then held at room temperature ([…]) until use.\n(§2) While recording, slices were perfused continuously (˜2 mL/min) with artificial cerebrospinal fluid (ACSF-NaCl 124, KCl2.5, NaH2PO4 1.2, NaHCO3 24, glucose 25, MgSO4 1, CaCl2 2) at 25° C. Neurons were visualized and targeted using an upright IR19 DIC microscope (BX51WI, Olympus). […] In order to confirm the PSCs recorded were GABAergic, picrotoxin (150 μM) was applied through the bath in part of the experiments. […] CNO (˜6 μM) was applied by a puff (30 s) from another glass pipette placed ˜50 μm from the recorded cell."}, "[2]": {"test_system": "hM4Di-expressing MnPO^GLP1r neurons", "test": "Slice current-clamp recording, CNO on hM4Di-expressing MnPO^GLP1r neurons", "type": "cell-based, mice", "conditions": "CNO application", "description": "as §1, §2"}, "MnPO^nNOS neurons": {"test_system": "MnPO^nNOS neurons", "test": "Drinking assays with chemogenetic inhibition of MnPO^nNOS neurons by CNO", "type": "in vivo, mice", "conditions": "hM4Di in MnPO^nNOS, CNO injection 10 mg/kg", "method": "For water-restriction experiments, animals were provided with 1 mL of water daily. For food restriction experiments, animals were provided 0.5 pellets/20 g body weight daily. All assays were performed in a modified lickometer as described previously^[35] or Biodaq monitoring system (Research Diets Inc). For all photometry assays, animals were acclimatized for 10-15 min in the lickometer cage before stimuli were given.\nLong-term access assays: Optogenetic Testing—For FIGS. 1L-N and FIGS. 7L-O, satiated mice were given ad libitum access to water for 20 min with photostimulation. Photostimulation was delivered for 1-s followed by 3-s intervals throughout the behavioral sessions. For FIGS. 2J-M and FIGS. 11C-E, mice were given access to water for 20 min after 24 h water-restriction, and photostimulation was delivered for the first 10 min. For feeding assays (FIGS. 2J-M), animals were single-housed in Biodaq cages after 24 h food-restriction, and chow intake was measured for 20 min with or without light stimulation. For acute inhibition experiments, mice were given access to 150 mM NaCl (FIGS. 5D-E, FIGS. 13E-F), water (FIGS. 1L-N, FIGS. 7L-O, FIGS. 13A-D, FIGS. 13G-H) for 20-30 min after 24 h water-restriction or 300 mM sucrose (FIGS. 1L-N, FIGS. 7L-O) after food-restriction. For all acute inhibition experiments, CNO was injected at 10 mg/kg body weight, 30 min prior to the start of the behavior session. For acute activation experiments, CNO was injected at 1 mg/kg body weight (FIGS. 12L-M), 30 min prior to the start of the behavior session. For FIG. 3A, FIGS. 9A-C, and FIG. 13L, water or saline access was provided for 30 min after 24 hours of water restriction. For FIGS. 4A-B, water or HydroGel (ClearH2O) in a cup was provided for 30 min after 24 and 36 hours of water restriction, respectively. The weight of the cup was measured before and after the behavior session. For FIGS. 4K-L, 0.5 pellets of chow was provided for 30 min after 24 h food-restriction. The entire session was recorded using a camera at 30 fps and ingestion episodes were manually annotated. […]"}}, "note": "“Also recorded” adds a separate entry of the source."}
{"smiles": "C[N+]1([O-])CCN(C2=Nc3cc(Cl)ccc3Nc3ccccc32)CC1", "note": "[CNO, clozapine-N-oxide]", "values": [{"measurement": "neurons in which firing is inhibited", "setting": "[1]; CNO application", "value": "6/6"}, {"measurement": "firing of hM4Di-expressing MnPO^nNOS neurons", "setting": "[1]; brief application of CNO", "value": "strongly suppressed the firing"}, {"measurement": "neurons in which firing is inhibited", "setting": "[2]", "value": "6/7"}, {"measurement": "SFO^nNOS-stimulated water intake", "setting": "MnPO^nNOS neurons; SFO^nNOS photostimulation", "value": "severely suppressed water consumption; also recorded: severely reduced"}, {"measurement": "sucrose (300 mM) consumption", "setting": "MnPO^nNOS neurons; food-restricted animals", "value": "did not decrease sugar; also recorded: did not suppress sucrose consumption"}, {"measurement": "dehydration-induced water intake", "setting": "MnPO^nNOS neurons; water-restricted animals", "value": "severely suppressed water consumption; also recorded: severely reduced"}]}
